Assay results reported in ChEMBL document CHEMBL1201862, “PubChem BioAssay data set” (2004).
The source made the active and inactive calls.

How the values were obtained:
cells [1] = type: functional, cell-based
cells [2] = type: functional, cell-based; remark: listed apart in the source
[3] = biological target: T1, Small ubiquitin-related modifier 1 (Homo sapiens, UniProt P63165); assay: SUMO1 protein-protein binding blockers, potency – biochemical, FRET, dose response (AID 624383); type: functional; conditions: read-out: IC50_Mean
Streptokinase A = biological target: T2, Streptokinase A (Streptococcus pyogenes serotype M1, UniProt P10520); assay: viability-normalized secreted streptokinase activity reduction – plasminogen activation absorbance, OD405, dose response (AID 1914); type: functional, Streptococcus pyogenes M1 GAS;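 note: secreted streptokinase activity via plasminogen activation per viability signal from cell pellet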
T2 sequence (P10520 whole entry): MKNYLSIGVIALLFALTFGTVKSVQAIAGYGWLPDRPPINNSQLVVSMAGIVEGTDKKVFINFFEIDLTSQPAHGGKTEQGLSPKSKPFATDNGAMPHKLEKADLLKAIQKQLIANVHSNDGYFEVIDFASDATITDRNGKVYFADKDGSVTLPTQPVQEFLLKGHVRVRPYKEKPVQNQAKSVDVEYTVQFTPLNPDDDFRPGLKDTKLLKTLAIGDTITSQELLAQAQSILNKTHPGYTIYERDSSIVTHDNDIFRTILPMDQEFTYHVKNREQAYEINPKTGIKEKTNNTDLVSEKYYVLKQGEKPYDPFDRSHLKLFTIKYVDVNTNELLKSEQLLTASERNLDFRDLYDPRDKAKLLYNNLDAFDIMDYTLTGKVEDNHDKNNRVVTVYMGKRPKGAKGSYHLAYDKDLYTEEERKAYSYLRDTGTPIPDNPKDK

[4] = biological target: T1, Small ubiquitin-related modifier 1; assay: SUMO1 protein interaction blockers, potency – biochemical, fluorescence polarization, uHTS hits, dose response (AID 624382); type: functional; conditions: read-out: IC50_Mean
Streptococcus = assay: GAS UMAA2166 growth inhibition – luminescence, BacTiterGlo, counter-screen for streptokinase expression inhibitor project, dose response (AID 1915); type: functional, organism-based;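 note: potency for reduction of bacterial viability or growth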
Protein RecA = biological target: T3, Protein RecA (Mycobacterium tuberculosis, UniProt P9WHJ3); assay: Fluorescence Cell-Free Homogeneous Dose Retest to Identify Inhibitors of RecA-Intein Splicing Activity. [Related pubchem assays (depositor defined):AID2097, AID2223, AID489010, AID492950]; type: functional
T3 sequence (P9WHJ3 whole entry): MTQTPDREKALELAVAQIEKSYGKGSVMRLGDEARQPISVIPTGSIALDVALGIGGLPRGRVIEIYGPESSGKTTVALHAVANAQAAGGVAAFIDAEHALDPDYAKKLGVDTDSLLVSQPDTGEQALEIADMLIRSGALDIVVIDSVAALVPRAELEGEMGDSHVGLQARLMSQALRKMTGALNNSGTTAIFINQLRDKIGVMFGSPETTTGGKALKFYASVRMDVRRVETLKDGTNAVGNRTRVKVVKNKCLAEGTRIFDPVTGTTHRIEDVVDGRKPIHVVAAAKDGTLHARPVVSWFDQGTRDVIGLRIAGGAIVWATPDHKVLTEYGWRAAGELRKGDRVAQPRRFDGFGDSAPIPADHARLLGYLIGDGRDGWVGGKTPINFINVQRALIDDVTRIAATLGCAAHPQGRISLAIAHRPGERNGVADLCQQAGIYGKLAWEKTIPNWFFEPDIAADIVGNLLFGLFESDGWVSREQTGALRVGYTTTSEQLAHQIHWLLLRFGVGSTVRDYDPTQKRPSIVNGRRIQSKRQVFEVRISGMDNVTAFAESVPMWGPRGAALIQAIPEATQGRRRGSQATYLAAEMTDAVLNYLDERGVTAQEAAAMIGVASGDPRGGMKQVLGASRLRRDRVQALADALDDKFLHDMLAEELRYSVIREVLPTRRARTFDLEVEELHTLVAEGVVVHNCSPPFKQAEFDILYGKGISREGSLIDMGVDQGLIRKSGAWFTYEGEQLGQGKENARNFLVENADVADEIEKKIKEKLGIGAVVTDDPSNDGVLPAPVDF

[5] = biological target: T4, Sentrin-specific protease 8 (Homo sapiens, UniProt Q96LD8); type: functional
T4 sequence (Q96LD8 whole entry): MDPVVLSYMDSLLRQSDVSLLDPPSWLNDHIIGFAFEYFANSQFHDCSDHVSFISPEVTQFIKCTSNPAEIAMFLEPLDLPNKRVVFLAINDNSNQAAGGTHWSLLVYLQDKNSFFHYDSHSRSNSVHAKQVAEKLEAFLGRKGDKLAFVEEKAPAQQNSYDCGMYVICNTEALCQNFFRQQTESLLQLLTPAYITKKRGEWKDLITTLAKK

[6] = biological target: T5, Replicative DNA helicase DnaB (Mycobacterium tuberculosis, UniProt P9WMR3); assay: DnaB intein splicing inhibitors, dose response, biochemical, cell-free fluorescence (AID 449749); type: functional
T5 sequence (P9WMR3 whole entry): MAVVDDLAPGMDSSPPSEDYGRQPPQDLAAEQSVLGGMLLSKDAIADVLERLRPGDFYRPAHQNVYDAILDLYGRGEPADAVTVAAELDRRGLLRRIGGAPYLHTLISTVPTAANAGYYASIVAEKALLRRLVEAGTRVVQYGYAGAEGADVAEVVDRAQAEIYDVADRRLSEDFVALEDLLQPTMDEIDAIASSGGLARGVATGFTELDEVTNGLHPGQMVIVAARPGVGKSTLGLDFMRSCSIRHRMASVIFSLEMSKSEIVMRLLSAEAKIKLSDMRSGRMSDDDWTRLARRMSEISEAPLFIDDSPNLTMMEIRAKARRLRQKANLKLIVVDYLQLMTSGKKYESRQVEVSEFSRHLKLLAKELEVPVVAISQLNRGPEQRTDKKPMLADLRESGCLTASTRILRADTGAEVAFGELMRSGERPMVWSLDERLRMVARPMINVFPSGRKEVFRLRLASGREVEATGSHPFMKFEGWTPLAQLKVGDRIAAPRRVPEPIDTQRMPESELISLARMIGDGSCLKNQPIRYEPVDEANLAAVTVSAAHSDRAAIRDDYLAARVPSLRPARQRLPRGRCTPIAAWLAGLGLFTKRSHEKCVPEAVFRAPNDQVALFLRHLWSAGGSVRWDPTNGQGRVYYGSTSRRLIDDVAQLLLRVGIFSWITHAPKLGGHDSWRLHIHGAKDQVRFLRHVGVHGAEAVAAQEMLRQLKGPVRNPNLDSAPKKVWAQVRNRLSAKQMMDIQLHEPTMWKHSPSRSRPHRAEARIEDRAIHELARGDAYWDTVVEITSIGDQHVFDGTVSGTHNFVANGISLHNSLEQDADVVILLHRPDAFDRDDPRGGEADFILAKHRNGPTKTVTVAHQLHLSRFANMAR

[7] = biological target: T4, Sentrin-specific protease 8; type: functional; remark: listed apart in the source
[8] = blockers of bursicon-stimulated LGR2 cAMP reporter – cell-based, HEK293, CRE-luciferase reporter, cherry pick, set 2, dose response (AID 743343); type: functional;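 note: transfected cells were stimulated with diluted bursicon conditioned medium after compound addition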
[9] = blockade of melanocortin 4 receptor signaling – cell-based, plate reader, cherry pick, counter-screen for LGR2 antagonist project, dose response (AID 743444); type: functional;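 note: transfected HEK 293 cells stimulated with alpha-MSH peptide; potency of inhibitors of the alpha-MSH evoked signal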
[10] = Counterscreen for activators of the function of SWI/SNF related, matrix associated, actin dependent regulator of chromatin, subfamily a, member 2 (SMARCA2, BRM): Luminescence-based cell-based high throughput dose response assay to identify non-selective compounds using the VP16 reporter assay.; type: functional
[11] = biological target: SWI/SNF-related matrix-associated actin-dependent regulator of chromatin subfamily A member 2 (Homo sapiens, UniProt P51531); assay: Luminescence-based cell-based high throughput dose response assay to identify activators of the function of SWI/SNF related, matrix associated, actin dependent regulator of chromatin, subfamily a, member 2 (SMARCA2, BRM).; type: functional
[12] = biological target: T6, Heat shock factor protein 1 (Mus musculus, UniProt P38532); assay: enhancement of HSF1-driven luciferase signal – cell-based, NIH3T3, luminescence, dose retest, confirmation (AID 435004); type: functional;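 note: stress induced by proteasome inhibitor MG132 added 30 min after compound; luciferase reporter driven by HSF1 response element in NIH3T3 cells; actives raise luminescence as potentiators of the MG132 stress response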
T6 sequence (P38532 whole entry): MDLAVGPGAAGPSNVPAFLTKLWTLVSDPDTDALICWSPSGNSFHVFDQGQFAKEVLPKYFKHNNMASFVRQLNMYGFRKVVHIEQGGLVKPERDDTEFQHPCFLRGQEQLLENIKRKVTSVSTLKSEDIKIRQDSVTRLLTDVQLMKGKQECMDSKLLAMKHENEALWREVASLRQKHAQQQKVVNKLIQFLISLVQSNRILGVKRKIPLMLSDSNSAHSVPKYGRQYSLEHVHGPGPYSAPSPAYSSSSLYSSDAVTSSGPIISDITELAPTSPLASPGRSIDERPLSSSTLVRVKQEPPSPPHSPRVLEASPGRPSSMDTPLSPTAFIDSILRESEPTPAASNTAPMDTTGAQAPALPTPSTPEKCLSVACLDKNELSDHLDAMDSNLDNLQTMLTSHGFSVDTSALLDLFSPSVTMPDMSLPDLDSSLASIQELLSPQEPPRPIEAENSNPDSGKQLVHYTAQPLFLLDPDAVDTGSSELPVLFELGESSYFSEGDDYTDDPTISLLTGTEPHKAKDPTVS

Paired box protein Pax-8 = Paired box protein Pax-8 (Homo sapiens, UniProt Q06710); assay: PAX8 transcriptional activity inhibition in RMG-I – RMG-I cells, luciferase, cherry-pick, dose response (AID 687027); type: functional, cell-based;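 note: luciferase reporter driven by Pax8 target thyroperoxidase promoter measured by SteadyGlo luminescence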
[13] = biological target: Ras and Rab interactor 1/Tyrosine-protein kinase ABL1 (Homo sapiens, UniProt P00519+Q13671); type: functional;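 note: biochemical TR-FRET dose-response test measuring inhibition of binding between Rin1 and Abl proteins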
[14] = general cell-killing toxicity readout – plate reader, dry powder samples, cytotoxicity control for PAX8 inhibitor project, dose response (AID 743021); type: functional, cell-based
[15] = viability loss in HEK293 cells – cell-based, plate reader, cherry-picked samples, cytotoxicity control, dose response (AID 743446); type: functional
[16] = non-specific 3'UTR reporter inhibition in Clone20-Shn3RL – cell-based, Renilla luciferase, cherry-picked, counter-screen for Shn3 inhibitor project, dose response (AID 624133); type: functional
[17] = reduction of Shn3 3'UTR-driven luciferase in osteoblasts – cell-based, Clone20 osteoblasts, firefly luciferase, cherry-picked, dose response (AID 624132); type: functional;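 note: firefly luciferase luminescence from reporter carrying the Shn3 3'UTR in osteoblasts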
[18] = toxicity toward HepG2 liver cells – cell-based, plate reader, cherry-pick, antagonist series, cytotoxicity control, dose response (AID 743416); type: functional
[19] = loss of viability in HepG2 cells – cell-based, CellTiter-Glo, cherry-picked, cytotoxicity control for Shn3 inhibitor project, dose response (AID 624134); type: functional
[20] = A549 cell cytotoxicity, dose response, cytotoxicity control, plate reader, cherry-pick, antagonist series (AID 743412); type: functional, cell-based
HEK293 = assay: viability loss in HEK293T cells – cell-based, ATP luminescence, cherry-pick samples, cytotoxicity control, dose response (AID 687005); type: functional; conditions: Homo sapiens;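 note: cells exposed to compound for 48 hours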
[21] = HEK293 Cytotoxicity Assay Measured in Cell-Based System Using Plate Reader - 7071-01_Inhibitor_Dose_CherryPick_Activity_Set2.; type: functional

Sequence of SWI/SNF-related matrix-associated actin-dependent regulator of chromatin subfamily A member 2 (P51531 whole entry): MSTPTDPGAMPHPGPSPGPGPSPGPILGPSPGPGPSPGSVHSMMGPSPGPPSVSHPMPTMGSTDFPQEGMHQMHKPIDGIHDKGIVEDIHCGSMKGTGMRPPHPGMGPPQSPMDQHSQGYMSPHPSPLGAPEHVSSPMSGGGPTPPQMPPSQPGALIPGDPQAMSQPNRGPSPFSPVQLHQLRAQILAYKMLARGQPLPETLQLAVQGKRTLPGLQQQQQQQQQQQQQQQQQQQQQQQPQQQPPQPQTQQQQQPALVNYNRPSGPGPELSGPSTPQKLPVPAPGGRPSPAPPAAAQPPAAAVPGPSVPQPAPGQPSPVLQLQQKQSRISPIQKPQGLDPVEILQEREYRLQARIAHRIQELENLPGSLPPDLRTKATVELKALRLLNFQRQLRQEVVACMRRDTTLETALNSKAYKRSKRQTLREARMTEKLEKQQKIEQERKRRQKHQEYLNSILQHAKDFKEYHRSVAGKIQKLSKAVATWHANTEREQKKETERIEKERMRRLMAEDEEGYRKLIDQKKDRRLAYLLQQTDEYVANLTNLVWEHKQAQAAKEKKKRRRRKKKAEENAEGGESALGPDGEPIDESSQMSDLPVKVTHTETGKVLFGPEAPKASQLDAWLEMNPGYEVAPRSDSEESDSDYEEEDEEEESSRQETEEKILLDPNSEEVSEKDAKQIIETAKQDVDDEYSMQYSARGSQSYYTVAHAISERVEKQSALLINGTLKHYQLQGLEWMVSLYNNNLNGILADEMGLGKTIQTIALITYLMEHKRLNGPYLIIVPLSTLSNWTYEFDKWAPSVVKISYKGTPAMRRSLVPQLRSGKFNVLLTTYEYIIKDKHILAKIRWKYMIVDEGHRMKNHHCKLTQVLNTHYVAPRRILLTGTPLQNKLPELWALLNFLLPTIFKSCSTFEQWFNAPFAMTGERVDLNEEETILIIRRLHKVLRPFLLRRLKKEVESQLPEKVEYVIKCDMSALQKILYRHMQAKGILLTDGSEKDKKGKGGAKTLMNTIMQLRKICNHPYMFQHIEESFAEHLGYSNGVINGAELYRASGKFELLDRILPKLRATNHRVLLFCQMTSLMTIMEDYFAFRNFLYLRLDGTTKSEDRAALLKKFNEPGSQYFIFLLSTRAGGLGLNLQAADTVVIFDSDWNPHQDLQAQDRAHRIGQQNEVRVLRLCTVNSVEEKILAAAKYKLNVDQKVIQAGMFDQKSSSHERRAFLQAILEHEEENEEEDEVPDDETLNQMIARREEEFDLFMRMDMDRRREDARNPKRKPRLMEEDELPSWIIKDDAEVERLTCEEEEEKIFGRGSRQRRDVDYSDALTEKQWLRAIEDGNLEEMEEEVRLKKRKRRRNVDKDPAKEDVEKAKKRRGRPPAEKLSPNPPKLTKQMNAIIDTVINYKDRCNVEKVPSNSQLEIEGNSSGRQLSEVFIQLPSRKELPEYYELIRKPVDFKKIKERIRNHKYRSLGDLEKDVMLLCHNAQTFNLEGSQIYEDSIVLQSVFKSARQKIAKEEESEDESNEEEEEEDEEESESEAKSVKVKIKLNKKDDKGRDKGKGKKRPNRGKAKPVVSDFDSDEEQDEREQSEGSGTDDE
T1 sequence (P63165 whole entry): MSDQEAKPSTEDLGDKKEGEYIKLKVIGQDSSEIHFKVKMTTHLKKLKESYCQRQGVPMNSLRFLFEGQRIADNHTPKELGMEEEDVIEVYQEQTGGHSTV
Sequence of Ras and Rab interactor 1/Tyrosine-protein kinase ABL1 (P00519 whole entry): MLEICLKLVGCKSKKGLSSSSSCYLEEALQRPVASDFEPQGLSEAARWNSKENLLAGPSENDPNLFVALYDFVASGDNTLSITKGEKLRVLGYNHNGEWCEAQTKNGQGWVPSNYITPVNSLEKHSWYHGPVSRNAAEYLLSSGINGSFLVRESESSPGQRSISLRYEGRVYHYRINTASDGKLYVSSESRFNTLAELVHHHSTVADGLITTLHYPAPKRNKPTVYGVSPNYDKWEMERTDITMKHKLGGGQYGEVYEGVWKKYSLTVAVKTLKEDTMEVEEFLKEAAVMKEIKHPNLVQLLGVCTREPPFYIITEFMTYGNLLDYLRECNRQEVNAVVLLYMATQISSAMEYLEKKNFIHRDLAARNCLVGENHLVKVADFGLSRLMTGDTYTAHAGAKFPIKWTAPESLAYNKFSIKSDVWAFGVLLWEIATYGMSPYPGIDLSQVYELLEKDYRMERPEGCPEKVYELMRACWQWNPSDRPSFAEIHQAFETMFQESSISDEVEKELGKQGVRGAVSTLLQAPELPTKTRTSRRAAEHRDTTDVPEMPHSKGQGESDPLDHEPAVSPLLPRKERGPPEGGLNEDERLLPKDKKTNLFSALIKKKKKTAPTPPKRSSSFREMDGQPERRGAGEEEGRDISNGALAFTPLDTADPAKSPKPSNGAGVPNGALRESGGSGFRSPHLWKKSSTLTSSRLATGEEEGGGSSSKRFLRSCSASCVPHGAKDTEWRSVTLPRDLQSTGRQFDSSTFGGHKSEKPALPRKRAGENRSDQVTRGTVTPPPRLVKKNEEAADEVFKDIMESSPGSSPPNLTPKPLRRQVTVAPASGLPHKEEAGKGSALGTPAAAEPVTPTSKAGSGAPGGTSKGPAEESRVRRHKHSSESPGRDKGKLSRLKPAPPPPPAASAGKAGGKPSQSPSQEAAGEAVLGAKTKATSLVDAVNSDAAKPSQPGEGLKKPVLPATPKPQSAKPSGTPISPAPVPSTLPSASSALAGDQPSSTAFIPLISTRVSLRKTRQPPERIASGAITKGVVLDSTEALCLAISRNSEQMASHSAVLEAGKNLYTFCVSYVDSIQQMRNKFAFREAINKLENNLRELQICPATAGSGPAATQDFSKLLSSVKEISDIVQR
Sequence of Ras and Rab interactor 1/Tyrosine-protein kinase ABL1 (Q13671 whole entry): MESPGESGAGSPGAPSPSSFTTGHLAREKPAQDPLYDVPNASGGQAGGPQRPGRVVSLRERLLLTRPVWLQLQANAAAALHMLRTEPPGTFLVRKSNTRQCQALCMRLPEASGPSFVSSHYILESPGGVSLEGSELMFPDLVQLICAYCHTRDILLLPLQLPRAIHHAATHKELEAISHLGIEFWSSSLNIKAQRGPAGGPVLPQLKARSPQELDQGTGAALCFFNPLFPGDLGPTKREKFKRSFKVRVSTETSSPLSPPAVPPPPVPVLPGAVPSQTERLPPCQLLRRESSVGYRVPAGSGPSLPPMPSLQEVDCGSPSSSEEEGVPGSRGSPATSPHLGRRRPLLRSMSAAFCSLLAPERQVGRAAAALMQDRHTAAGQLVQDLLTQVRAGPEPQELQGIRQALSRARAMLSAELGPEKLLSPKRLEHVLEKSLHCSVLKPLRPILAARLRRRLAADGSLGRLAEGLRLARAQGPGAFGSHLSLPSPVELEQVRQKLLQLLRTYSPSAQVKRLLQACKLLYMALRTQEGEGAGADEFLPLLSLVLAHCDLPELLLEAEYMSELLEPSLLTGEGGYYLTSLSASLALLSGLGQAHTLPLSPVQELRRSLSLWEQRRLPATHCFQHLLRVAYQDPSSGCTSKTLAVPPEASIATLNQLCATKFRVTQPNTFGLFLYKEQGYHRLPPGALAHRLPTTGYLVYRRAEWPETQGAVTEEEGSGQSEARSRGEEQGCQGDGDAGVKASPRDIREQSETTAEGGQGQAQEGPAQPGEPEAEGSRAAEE
Sequence of Paired box protein Pax-8 (Q06710 whole entry): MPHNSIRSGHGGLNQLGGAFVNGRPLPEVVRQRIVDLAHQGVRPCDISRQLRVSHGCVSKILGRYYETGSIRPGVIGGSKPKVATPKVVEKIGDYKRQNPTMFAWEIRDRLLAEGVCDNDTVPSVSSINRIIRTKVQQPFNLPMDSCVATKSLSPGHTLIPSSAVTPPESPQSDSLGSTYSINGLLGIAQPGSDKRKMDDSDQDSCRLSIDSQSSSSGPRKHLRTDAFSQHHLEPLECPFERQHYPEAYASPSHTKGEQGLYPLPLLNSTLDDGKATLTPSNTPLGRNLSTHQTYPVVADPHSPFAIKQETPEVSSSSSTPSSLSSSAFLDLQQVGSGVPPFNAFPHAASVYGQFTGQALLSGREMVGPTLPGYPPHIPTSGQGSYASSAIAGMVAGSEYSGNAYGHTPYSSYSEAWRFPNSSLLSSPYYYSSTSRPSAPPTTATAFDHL

N#C/C(=C\c1ccc(/C=C(/C#N)c2nn(CCO)c(N)c2C#N)cc1)c1nn(CCO)c(N)c1C#N
EC50 (cells [1]): > 350 µM (not active)
EC50 (cells [2]): > 350 µM (not active)
IC50 [3]: 2.85 µM (active)
EC50 (Streptokinase A): > 150 µM (not active)
IC50 [4]: > 66.6 µM (inactive)
EC50 (Streptococcus): > 150 µM (not active)

COc1cc(C(c2c(C)[nH][nH]c2=O)c2c(C)[nH][nH]c2=O)ccc1OS(=O)(=O)c1ccc(C)cc1
EC50 (Protein RecA): 0.195 µM (active)
IC50 [5]: 20.4 µM (active)
AC50 [6]: 0.484 µM (active)
IC50 [7]: 35.4 µM (active)

O=C(Nc1ccc(N2CCN(C(=O)c3ccc(Cl)cc3)CC2)cc1)c1cc2ccccc2o1
AC50 [8]: 29.4 µM (active)
AC50 [9]: 28.6 µM (active)

COc1ccc(C2Nc3ccccc3C(=O)N2c2ccc(C)cc2)cc1COc1ccccn1 (centres undefined)
EC50 [10]: > 91.1 µM (inactive)
EC50 [11]: > 91.1 µM (inactive)

Cc1cc(C)nc(Sc2nc(Cl)nc(N(c3ccccc3)c3ccccc3)n2)n1
EC50 [12]: > 260 µM (inactive)
EC50 [10]: > 91.1 µM (inactive)
EC50 [11]: > 91.1 µM (inactive)

OCC1OC(n2cnc3c(NCc4ccccc4O)ncnc32)C(O)C1O (centres undefined)
AC50 (Paired box protein Pax-8): 0.759 µM (active)
IC50 [13]: > 24.5 µM (inactive)
AC50 [14]: 4.79 µM (active)

CCCCNc1c(-c2ccc(OC)c(SC3CCCCC3)c2)nc2ccc(C)cn12
AC50 [15]: 15.5 µM (active)
AC50 [16]: 2.14 µM (active)
AC50 [8]: 7.85 µM (active)
AC50 [17]: 3.68 µM (active)
AC50 [18]: 18.4 µM (active)
AC50 [9]: 9.94 µM (active)
AC50 [19]: 45 µM (active)
AC50 [20]: 22.1 µM (active)

O=C(Nc1c(-c2ccc(Cl)cc2)n[nH]c1O)c1ccc(Br)cc1
IC50 [5]: 34.1 µM (active)
IC50 [7]: 48 µM (active)

O=C(C[C@@H]1CC[C@@H]2[C@H](COC[C@@H](O)CN2C(=O)Nc2ccc(Cl)cc2)O1)NC1Cc2ccccc2C1
AC50 (HEK293): 25.2 µM (active)
AC50 [21]: 25.2 µM (active)

C[C@@H]1CCCCO[C@H](CN(C)C(=O)Nc2ccc(F)cc2)[C@H](C)CN([C@@H](C)CO)C(=O)c2cc(NS(=O)(=O)c3ccc(Cl)cc3)ccc2O1
AC50 (HEK293): 21.9 µM (active)
AC50 [21]: 21.9 µM (active)
